The target in this test is T1, human FXR (Homo sapiens, UniProt Q96RI1).
T1 construct: expressed in transfected cells
T1 sequence (Q96RI1 1-486): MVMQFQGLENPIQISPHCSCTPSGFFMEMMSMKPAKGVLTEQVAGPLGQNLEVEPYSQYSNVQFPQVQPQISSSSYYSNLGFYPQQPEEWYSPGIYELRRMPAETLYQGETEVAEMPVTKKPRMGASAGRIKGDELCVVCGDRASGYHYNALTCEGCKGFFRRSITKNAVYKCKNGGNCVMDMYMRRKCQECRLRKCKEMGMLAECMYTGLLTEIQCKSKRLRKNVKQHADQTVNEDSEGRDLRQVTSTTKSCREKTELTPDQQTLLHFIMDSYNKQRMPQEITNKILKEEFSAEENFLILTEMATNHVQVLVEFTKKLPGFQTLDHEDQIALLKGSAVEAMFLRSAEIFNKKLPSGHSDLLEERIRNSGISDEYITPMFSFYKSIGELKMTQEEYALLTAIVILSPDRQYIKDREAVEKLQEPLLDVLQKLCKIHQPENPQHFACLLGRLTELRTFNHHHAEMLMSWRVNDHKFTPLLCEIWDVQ
The test can be described thus: FXR reporter assay (cellular FXR activities). It counts as cell-based. The following applies: for EC50: FXR reporter cells, 24 hours incubation, luciferase, read-out: Reporter Cell EC50; for Emax: read-out: Emax (%) (GW4064 Emax = 100%). As to the method:
FXR reporter assay was performed to measure cellular FXR activities of the compounds in the present invention. FXR reporter cells with high expression level of human FXR were seeded into 96-well cell culture plates, and incubated for 1-2 hours at 37° C. under 5% CO2 atmosphere. The invented compounds diluted in DMSO with various concentrations were added to the 96-well cell culture plates, and they were incubated for 24 hours at 37° C. under 5% CO2 atmosphere. After incubation, we calculate EC50 by using luciferase substrate.

Counter-ions that a name gives are not always drawn.

By EC50 is commonly meant the concentration needed to bring the measured effect to its halfway point. What is called Emax is the greatest response seen or fitted, relative to the assay's reference. Take `O=C(O)c1ccc(C#Cc2ccc(OCc3c(-c4c(Cl)cccc4Cl)noc3C3CC3)cc2Cl)nc1` [Compound I-17, 6-((2-chloro-4-((5-cyclopropyl-3-(2,6-dichlorophenyl)isoxazol-4-yl)methoxy)phenyl)ethynyl)nicotinic acid]: the 50% effective concentration (EC50) was 200 to 1000 nM and the maximum response (Emax) is 89%.

As to `O=C(O)c1cc(C#Cc2ccc(OCc3c(-c4c(Cl)cccc4Cl)noc3C3CC3)cc2Cl)cc(NC2CCNCC2)c1` [Compound I-58, 3-((2-chloro-4-((5-cyclopropyl-3-(2,6-dichlorophenyl)isoxazol-4-yl)methoxy)phenyl)ethynyl)-5-(piperidin-4-ylamino)benzoic acid hydrochloride], the 50% effective concentration (EC50) was over 1000 nM and the Emax was 75%.

For the compound `O=C(O)c1cc(C#Cc2ccc(OCc3c(-c4c(Cl)cccc4Cl)noc3C3CC3)cc2Cl)cc(N2CCOC2=O)c1` [Compound I-83, 3-((2-chloro-4-((5-cyclopropyl-3-(2,6-dichlorophenyl)isoxazol-4-yl)methoxy)phenyl)ethynyl)-5-(2-oxooxazolidin-3-yl)benzoic acid], the EC50 lay within 20 to 60 nM and the Emax is 89%.

Turning to `O=Cc1cc(C#Cc2ccc(OCc3c(-c4c(Cl)cccc4Cl)noc3C3CC3)cc2Cl)cc(C(=O)O)c1` [Compound I-41, 3-((2-chloro-4-((5-cyclopropyl-3-(2,6-dichlorophenyl)isoxazol-4-yl)methoxy)phenyl)ethynyl)-5-formylbenzoic acid], the half-maximal effective concentration (EC50) was in the range of 20 to 60 nM and the maximum response (Emax) is over 100%.

For `O=C(O)c1ccc(C#Cc2ccc(OCc3c(-c4c(Cl)cccc4Cl)noc3C3CC3)cc2C(F)(F)F)cc1` [Compound I-4, 4-((4 ((5-cyclopropyl-3-(2,6-dichlorophenyl)isoxazol-4-yl)methoxy)-2-(trifluoromethyl)phenyl)ethynyl)benzoic acid], the EC50 lay within 60 to 200 nM and the Emax is 91%.

Consider `NS(=O)(=O)c1cccc(C#Cc2ccc(OCc3c(-c4c(Cl)cccc4Cl)noc3C3CC3)cc2Cl)c1` [Compound I-12, 3-((2-chloro-4-((5-cyclopropyl-3-(2,6-dichlorophenyl)isoxazol-4-yl)methoxy)phenyl)ethynyl)benzenesulfonamide], for which the EC50 was 200 to 1000 nM and the maximum response (Emax) was over 100%.

Take `O=C(O)c1cc(C#Cc2ccc(OCc3c(-c4c(Cl)cccc4Cl)noc3C3CC3)cc2Cl)ccc1F` [Compound I-37, 5-((2-chloro-4-((5-cyclopropyl-3-(2,6-dichlorophenyl)isoxazol-4-yl)methoxy)phenyl)ethynyl)-2-fluorobenzoic acid]: the concentration for a half-maximal effect (EC50) was 60 to 200 nM and the Emax is 94%.

For `COc1c(N)cc(C#Cc2ccc(OCc3c(-c4c(Cl)cccc4Cl)noc3C3CC3)cc2Cl)cc1C(=O)O` [Compound I-62, 3-amino-5-((2-chloro-4-((5-cyclopropyl-3-(2,6-dichlorophenyl)isoxazol-4-yl)methoxy)phenyl)ethynyl)-2-methoxybenzoic acid], the EC50 lay within 60 to 200 nM and the maximum response (Emax) is over 100%.

Regarding `NS(=O)(=O)Nc1cccc(C#Cc2ccc(OCc3c(-c4c(Cl)cccc4Cl)noc3C3CC3)cc2Cl)c1` [Compound I-14, N-(3-((2-chloro-4-((5-cyclopropyl-3-(2,6-dichlorophenyl)isoxazol-4-yl)methoxy)phenyl)ethynyl)phenyl)sulfamide], the EC50 was 200 to 1000 nM and the maximum response (Emax) is 96%.

For the compound `Cc1c(N)cc(C(=O)O)cc1C#Cc1ccc(OCc2c(-c3c(Cl)cccc3Cl)noc2C2CC2)cc1Cl` [Compound I-60, 3-amino-5-((2-chloro-4-((5-cyclopropyl-3-(2,6-dichlorophenyl)isoxazol-4-yl)methoxy)phenyl)ethynyl)-4-methylbenzoic acid], the concentration for a half-maximal effect (EC50) fell in the range of 20 to 60 nM and the Emax is 98%.

The values above are taken from patent US10988449B2, “Isoxazole derivatives as nuclear receptor agonists and uses thereof” (IL DONG PHARMACEUTICAL CO., LTD., priority 2017, dated 2021).
